According to PubChem BioAssay AID330 (DTP/NCI, 2004):
Where “and” joins values, the source holds several entries; their conditions need not be identical. Equal values may be shown once. Toxic doses and inconclusive results are not listed. The calls were made as follows: active = survival T/C of 150% or more; inactive = T/C below 125% in these data.

System: P388 leukemia ip, CD2F1 mice, survival T/C
Assay: NCI In Vivo Anticancer Drug Screen. Data for tumor model P388 Leukemia (intraperitoneal) in CD2F1 (CDF1) mice
Settings: endpoint: median survival time, higher = longer survival
How it was run: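 Mice carrying the transplanted tumor received test compound or vehicle. Survival was recorded in each group, and the value is the treated-group measurement divided by that of the vehicle-treated control group.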

[1] = dose: 25.0 mg/kg/injection, schedule: Q01DX009 (ip), vehicle: saline with Tween-80
[2] = dose: 50.0 mg/kg/injection, schedule: Q01DX009 (ip), vehicle: saline with Tween-80
[3] = dose: 100.0 mg/kg/injection, schedule: Q01DX009 (ip), vehicle: saline with Tween-80
[4] = dose: 50.0 mg/kg/injection, schedule: Q01DX009 (ip), vehicle: Klucel (hydroxypropylcellulose) (HPC)
[5] = dose: 100.0 mg/kg/injection, schedule: Q01DX009 (ip), vehicle: Klucel (hydroxypropylcellulose) (HPC)
[6] = dose: 50.0 mg/kg/injection, schedule: Q01DX005 (ip), vehicle: saline with Tween-80
[7] = dose: 100.0 mg/kg/injection, schedule: Q01DX005 (ip), vehicle: saline with Tween-80
[8] = dose: 200.0 mg/kg/injection, schedule: Q01DX005 (ip), vehicle: saline with Tween-80
[9] = dose: 25.0 mg/kg/injection, schedule: Q01DX009 (ip), vehicle: saline
[10] = dose: 50.0 mg/kg/injection, schedule: Q01DX009 (ip), vehicle: saline
[11] = dose: 100.0 mg/kg/injection, schedule: Q01DX009 (ip), vehicle: saline
[12] = dose: 200.0 mg/kg/injection, schedule: Q01DX009 (ip), vehicle: saline
[13] = dose: 12.5 mg/kg/injection, schedule: Q01DX009 (ip), vehicle: saline with Tween-80
[14] = dose: 60.0 mg/kg/injection, schedule: Q01DX005 (ip), vehicle: saline with Tween-80
[15] = dose: 120.0 mg/kg/injection, schedule: Q01DX005 (ip), vehicle: saline with Tween-80
[16] = dose: 240.0 mg/kg/injection, schedule: Q01DX005 (ip), vehicle: saline with Tween-80
[17] = dose: 200.0 mg/kg/injection, schedule: Q01DX009 (ip), vehicle: Klucel (hydroxypropylcellulose) (HPC)
[18] = dose: 12.5 mg/kg/injection, schedule: Q01DX005 (ip), vehicle: Klucel (hydroxypropylcellulose) (HPC)
[19] = dose: 25.0 mg/kg/injection, schedule: Q01DX005 (ip), vehicle: Klucel (hydroxypropylcellulose) (HPC)
[20] = dose: 50.0 mg/kg/injection, schedule: Q01DX005 (ip), vehicle: Klucel (hydroxypropylcellulose) (HPC)
[21] = dose: 100.0 mg/kg/injection, schedule: Q04DX003 (ip), vehicle: Klucel (hydroxypropylcellulose) (HPC)
[22] = dose: 200.0 mg/kg/injection, schedule: Q04DX003 (ip), vehicle: Klucel (hydroxypropylcellulose) (HPC)
[23] = dose: 400.0 mg/kg/injection, schedule: Q04DX003 (ip), vehicle: Klucel (hydroxypropylcellulose) (HPC)

Measured: T/C

Cc1cc(=O)oc2nc(-c3ccccc3)[nH]c(=O)c12
inactive: dose: 60.0 mg/kg/injection, schedule: Q01DX005 (ip), vehicle: Klucel (hydroxypropylcellulose) (HPC) 86 % of control | dose: 120.0 mg/kg/injection, schedule: Q01DX005 (ip), vehicle: Klucel (hydroxypropylcellulose) (HPC) 100 % of control | dose: 240.0 mg/kg/injection, schedule: Q01DX005 (ip), vehicle: Klucel (hydroxypropylcellulose) (HPC) 91 % of control

Nc1ccc(C(=O)c2ccccc2)cc1
inactive: [1] 93 % of control | [2] 100 % of control | [3] 102 % of control

CCOC(=O)c1ccc(NC(=O)NC2=NCCS2)cc1
inactive: dose: 12.5 mg/kg/injection, schedule: Q01DX009 (ip), vehicle: distilled water + Tween-80 96 % of control | dose: 25.0 mg/kg/injection, schedule: Q01DX009 (ip), vehicle: distilled water + Tween-80 93 % of control | dose: 50.0 mg/kg/injection, schedule: Q01DX009 (ip), vehicle: distilled water + Tween-80 93 % of control | dose: 100.0 mg/kg/injection, schedule: Q01DX009 (ip), vehicle: distilled water + Tween-80 96 % of control | dose: 200.0 mg/kg/injection, schedule: Q01DX009 (ip), vehicle: distilled water + Tween-80 87 % of control

O=C(O)CC1Sc2nc3c(n2C1(O)c1ccccc1)-c1ccccc1CC3 (configuration not stated)
inactive: dose: 25.0 mg/kg/injection, schedule: Q01DX009 (ip), vehicle: Klucel (hydroxypropylcellulose) (HPC) 111 % of control | [4] 98 % of control | [5] 100 % of control

COc1ccc2c(c1)OCCN(C)OC2c1cccc(Cl)c1 (configuration not stated)
inactive: [6] 107 % of control | [7] 99 % of control | [8] 92 % of control

Cc1ccc(S)c(S)c1
inactive: [9] 100 % of control | [10] 108 % of control | [11] 100 % of control and 106 % of control and 113 % of control | [12] 101 % of control | dose: 400.0 mg/kg/injection, schedule: Q01DX009 (ip), vehicle: saline 94 % of control | dose: 600.0 mg/kg/injection, schedule: Q01DX009 (ip), vehicle: saline 91 % of control

Clc1ccc(C(CCOc2ccccc2Br)Cn2ccnc2)c(Cl)c1 (configuration not stated)
inactive: [13] 89 % of control | [1] 90 % of control | [2] 101 % of control and 94 % of control

CCCCCCCC1SCC(=O)N1c1nncs1 (configuration not stated)
inactive: [14] 94 % of control | [15] 94 % of control | [16] 91 % of control

CCOC(=O)C(Cc1ccc(O)cc1)NC(=O)C(CCCCN)N(C(=O)OCc1ccccc1)C(=O)OCc1ccccc1 (configuration not stated)
inactive: [6] 96 % of control | [7] 94 % of control | [8] 92 % of control

Nc1cc(I)c2cccnc2c1O
inactive: dose: 6.25 mg/kg/injection, schedule: Q01DX009 (ip), vehicle: saline 119 % of control | dose: 12.5 mg/kg/injection, schedule: Q01DX009 (ip), vehicle: saline 115 % of control | dose: 16.0 mg/kg/injection, schedule: Q01DX009 (ip), vehicle: saline 98 % of control | [9] 92 % of control and 98 % of control | dose: 35.0 mg/kg/injection, schedule: Q01DX009 (ip), vehicle: saline 107 % of control | [10] 119 % of control

CC1(C)CC(=O)C(CC(=O)c2ccccc2)=C(NNc2ccncc2)C1
inactive: [4] 94 % of control | [5] 95 % of control | [17] 91 % of control

Cc1nc2ccccc2[n]1[Sn]([CH3])([CH3])[n]1c(C)nc2ccccc21
inactive: [18] 118 % of control | [19] 118 % of control | [20] 112 % of control and 118 % of control

CC(C)=CC(=O)CC(O)(C(F)(F)F)C(F)(F)Cl (configuration not stated)
inactive: [1] 109 % of control

O=[N+]([O-])c1oc2ccc3ccccc3c2c1CCO
inactive: [14] 97 % of control | [15] 110 % of control | [16] 117 % of control

O=C(NCc1ccccc1)c1ccccc1NS(=O)(=O)c1ccc(Cl)c(Cl)c1
inactive: [6] 96 % of control | [7] 87 % of control | [8] 93 % of control

O=[N+]([O-])c1ccc2nnnn2c1
inactive: [10] 100 % of control | [11] 107 % of control | [12] 100 % of control

O=S1(c2ccccc2)=NC(Nc2ccccc2)=Nc2ccccc21 (configuration not stated)
inactive: [2] 107 % of control | [3] 101 % of control | dose: 200.0 mg/kg/injection, schedule: Q01DX009 (ip), vehicle: saline with Tween-80 111 % of control

COC(=O)C12CC3CC(CC(NC(=O)C(Cc4ccccc4)NC(=O)CN)(C3)C1)C2 (configuration not stated)
inactive: dose: 60.0 mg/kg/injection, schedule: Q01DX005 (ip), vehicle: saline 94 % of control | dose: 120.0 mg/kg/injection, schedule: Q01DX005 (ip), vehicle: saline 99 % of control | dose: 240.0 mg/kg/injection, schedule: Q01DX005 (ip), vehicle: saline 94 % of control

CCC(=N\N=C(N)N)/C(C)=N\N=C(N)N
inactive: [6] 99 % of control | [7] 96 % of control

CCSC(C)(C)C
inactive: [10] 102 % of control | [11] 100 % of control | [12] 100 % of control

Cc1cn(C)c2c1-c1c(cnn1-c1ccccc1)CC2
inactive: [21] 100 % of control | [22] 102 % of control | [23] 93 % of control

O=C(Nc1ccc(CCO)cc1)Nc1cc(C(F)(F)F)ccc1Cl
inactive: [14] 89 % of control | [15] 90 % of control

Cn1ccccc1=NCC(N)=O
inactive: dose: 100.0 mg/kg/injection, schedule: Q04DX002 (ip), vehicle: saline 99 % of control | dose: 200.0 mg/kg/injection, schedule: Q04DX002 (ip), vehicle: saline 104 % of control | dose: 400.0 mg/kg/injection, schedule: Q04DX002 (ip), vehicle: saline 102 % of control

CC1(C)N=C(N)N=C(N)N1CCCCc1ccccc1
inactive: dose: 6.25 mg/kg/injection, schedule: Q01DX005 (ip), vehicle: Klucel (hydroxypropylcellulose) (HPC) 110 % of control | [18] 114 % of control | [19] 118 % of control

COc1cc(C(=O)NN=C(C)C)cc(OC)c1OC
inactive: [20] 101 % of control | dose: 100.0 mg/kg/injection, schedule: Q01DX005 (ip), vehicle: Klucel (hydroxypropylcellulose) (HPC) 104 % of control | dose: 200.0 mg/kg/injection, schedule: Q01DX005 (ip), vehicle: Klucel (hydroxypropylcellulose) (HPC) 101 % of control

O=c1[nH]cnc2nc(N3CCN(c4ccccc4)CC3)sc12
inactive: [14] 87 % of control | [15] 87 % of control | [16] 87 % of control

NC(=S)N/N=C\c1[nH]c(=O)nc2ccccc12
inactive: [5] 100 % of control | [17] 100 % of control | dose: 400.0 mg/kg/injection, schedule: Q01DX009 (ip), vehicle: Klucel (hydroxypropylcellulose) (HPC) 100 % of control

O=c1[nH]nc(-c2ccc([N+](=O)[O-])o2)o1
inactive: dose: 6.25 mg/kg/injection, schedule: Q01DX009 (ip), vehicle: saline with Tween-80 101 % of control | [13] 106 % of control | [1] 97 % of control | [2] 99 % of control

O=C1CC(O)(c2ccccc2)CS1 (configuration not stated)
inactive: [21] 107 % of control | [22] 105 % of control | [23] 100 % of control
